Values of other authors, collected in patent US20240398763A1, “ORAL DOSAGE FORM CONTAINING ONCOLOGICAL ACTIVE INGREDIENT” (OWP Pharmaceuticals, Inc., priority 2023, published 2024).
In brackets after ≈: the same amount, converted by molar mass. Where a name gives a salt, the structure may show the parent alone.

conditions: approximate pH 5.0 and above

Solubility | SMILES
(0.08 mg/mL or less) | CCOc1cc2ncc(C#N)c(Nc3ccc(OCc4ccccn4)c(Cl)c3)c2cc1NC(=O)/C=C/CN(C)C [neratinib]

same assay, conditions: aqueous media over the range pH 1.2 to pH 6.8

Solubility | SMILES
is in excess of 25 mg/mL | CCN(CC)CCNC(=O)c1c(C)[nH]c(/C=C2\C(=O)Nc3ccc(F)cc32)c1C [sunitinib malate]

same assay, conditions: aqueous media, pH 6.8

Solubility [mg/mL] | SMILES
0.03 (≈ 53.5 µM) | C=CC(=O)N1CCN(c2nc(=O)n(-c3c(C)ccnc3C(C)C)c3nc(-c4c(O)cccc4F)c(F)cc23)[C@@H](C)C1 [sotorasib]

same assay, conditions: aqueous solutions across physiological pH range (pH 1.2 and 7.4)

Solubility | SMILES
(solubility ≤74 mcg/mL) | CC(C)(O)CNc1nc(Nc2ccnc(C(F)(F)F)c2)nc(-c2cccc(C(F)(F)F)n2)n1 [enasidenib]

same assay, conditions: at 25° C.

Solubility | SMILES
solubility (0.5 mg/mL | CC(C)(C#N)c1cc(Cn2cncn2)cc(C(C)(C)C#N)c1 [anastrozole, α,α,α′,α′-tetramethyl-5-(1H-1,2,4-triazol-1-ylmethyl)-1,3-benzenediacetonitrile, reference compound]
6 mg/mL at 25 °C | CCCCCOC(=O)Nc1nc(=O)n([C@@H]2O[C@H](C)C(O)C2O)cc1F (stereo partly drawn) [capecitabine, pentyl ester [1-(5-deoxy-β-d-ribofuranosyl)-5-fluoro-1,2-dihydro-2-oxo-4-pyrimidinyl]-carbamic acid, reference compound]

same assay, conditions: at 37° C., in words

Aqueous solubility | SMILES
freely soluble at pH 6.8) | O=C(Nc1cnn2ccc(N3CCC[C@@H]3c3cc(F)ccc3F)nc12)N1CC[C@H](O)C1 [larotrectinib]

same assay, conditions: condition not given

Solubility | SMILES
7 mg/mL (≈ 36100 µM) | Cn1nnc2c(C(N)=O)ncn2c1=O [temozolomide]
22.5 mg/mL; unknown | Nc1ncn([C@H]2C[C@H](O)[C@@H](CO)O2)c(=O)n1 [decitabine]
0.007 mg/mL (≈ 12 µM) | CS(=O)(=O)CCNCc1ccc(-c2ccc3ncnc(Nc4ccc(OCc5cccc(F)c5)c(Cl)c4)c3c2)o1 [lapatinib]
3 mg/mL | Nc1nc(F)nc2c1ncn2[C@@H]1O[C@H](COP(=O)(O)O)[C@@H](O)[C@@H]1O [fludarabine phosphate]

same assay, conditions: in water / aqueous media, in words

Solubility | SMILES
slightly soluble at pH 1, | COC(=O)N[C@@H](C)CNc1nccc(-c2cn(C(C)C)nc2-c2cc(Cl)cc(NS(C)(=O)=O)c2F)n1 [encorafenib]
insoluble in water | CC(=O)O[C@]1(C(C)=O)CC[C@H]2[C@@H]3C[C@H](C)C4=CC(=O)CC[C@]4(C)[C@H]3CC[C@@]21C [medroxyprogesterone acetate]
insoluble in water | C=CC(=O)Nc1cc(Nc2nccc(-c3cn(C)c4ccccc34)n2)c(OC)cc1N(C)CCN(C)C [osimertinib]
insoluble in water | CO[C@@H]1[C@H](N(C)C(=O)c2ccccc2)C[C@H]2O[C@]1(C)n1c3ccccc3c3c4c(c5c6ccccc6n2c5c31)C(=O)NC4 [midostaurin]
insoluble in water | CS(=O)(=O)c1ccc(Oc2cc(F)cc(C#N)c2)c2c1[C@H](O)[C@H](F)[C@@H]2F [belzutifan]
insoluble in water | COc1cc(N2CCC(N3CCN(C)CC3)CC2)ccc1Nc1ncc(Cl)c(Nc2ccccc2P(C)(C)=O)n1 [brigatinib]
insoluble in water | Sc1ncnc2nc[nH]c12 [mercaptopurine]
insoluble in water | CN1CCN(c2ccc(C(=O)Nc3n[nH]c4ccc(Cc5cc(F)cc(F)c5)cc34)c(NC3CCOCC3)c2)CC1 [entrectinib]
insoluble in water | CCc1cc2c(cc1N1CCC(N3CCOCC3)CC1)C(C)(C)c1[nH]c3cc(C#N)ccc3c1C2=O [alectinib]
insoluble in water | Cc1nc(Nc2ncc(C(=O)Nc3c(C)cccc3Cl)s2)cc(N2CCN(CCO)CC2)n1 [dasatinib]
insoluble in water | C=C(c1ccc(C(=O)O)cc1)c1cc2c(cc1C)C(C)(C)CCC2(C)C [bexarotene]
insoluble in water | CN(C)C(=O)c1cc2cnc(Nc3ccc(N4CCNCC4)cn3)nc2n1C1CCCC1 [ribociclib]
insoluble in water | COc1cc2nccc(Oc3ccc(NC(=O)Nc4cc(C)on4)c(Cl)c3)c2cc1OC [tivozanib]
practically insoluble | CC(C)(O)CNc1nc(Nc2ccnc(C(F)(F)F)c2)nc(-c2cccc(C(F)(F)F)n2)n1 [enasidenib]
insoluble in water | CS(=O)(=O)OCCCCOS(C)(=O)=O [busulfan]
water soluble | Nc1ncn([C@@H]2O[C@H](CO)[C@@H](O)[C@H]2O)c(=O)n1 [azacitidine]
insoluble in water | C1=C/COCc2cc(ccc2OCCN2CCCC2)Nc2nccc(n2)-c2cccc(c2)COC/1 [pacritinib]
insoluble in water | Clc1ccc(C(c2ccccc2Cl)C(Cl)Cl)cc1 (stereo not shown) [mitotane]
slightly soluble in water | COc1cc2nccc(Oc3ccc(NC(=O)NC4CC4)c(Cl)c3)c2cc1C(N)=O [lenvatinib]
insoluble in water | O=C(/C=C\n1cnc(-c2cc(C(F)(F)F)cc(C(F)(F)F)c2)n1)NNc1cnccn1 [selinexor]
insoluble in water | Cn1cc(-c2cc3c(N4CCN(c5ncc([C@@](C)(N)c6ccc(F)cc6)cn5)CC4)ncnn3c2)cn1 [avapritinib]
insoluble in water | CC1=C(/C=C/C(C)=C/C=C/C(C)=C/C(=O)O)C(C)(C)CCC1 [tretinoin]
water soluble | CC[C@@]1(O)C(=O)OCc2c1cc1n(c2=O)Cc2cc3c(CN(C)C)c(O)ccc3nc2-1 [topotecan]
insoluble in water | CC(C)C(=O)Nc1ccc([N+](=O)[O-])c(C(F)(F)F)c1 [flutamide]
insoluble in water | Cc1cc(Nc2ncc(Cl)c(Nc3ccccc3S(=O)(=O)C(C)C)n2)c(OC(C)C)cc1C1CCNCC1 [ceritinib]
insoluble in water | CCN1CCN(Cc2ccc(Nc3ncc(F)c(-c4cc(F)c5nc(C)n(C(C)C)c5c4)n3)nc2)CC1 [abemaciclib]
insoluble in water | Cc1cc(Nc2ncnc3ccc(NC4=NC(C)(C)CO4)cc23)ccc1Oc1ccn2ncnc2c1 [tucatinib]
water soluble | Cc1nccn1CC1CCc2c(c3ccccc3n2C)C1=O (stereo not shown) [ondansetron hydrochloride]
insoluble in water | Cc1ccc(Nc2nccc(N(C)c3ccc4c(C)n(C)nc4c3)n2)cc1S(N)(=O)=O [pazopanib]
water soluble | CN(C)C/C=C/C(=O)Nc1cc2c(Nc3ccc(F)c(Cl)c3)ncnc2cc1O[C@H]1CCOC1 [afatinib]

SMILES | Solubility
C[C@]12CC[C@@H]3c4ccc(OC(=O)N(CCCl)CCCl)cc4CC[C@H]3[C@@H]1CC[C@@H]2OP(=O)(O)O [estramustine phosphate] | water soluble
O=C(O)CCCc1ccc(N(CCCl)CCCl)cc1 [chlorambucil] | insoluble in water
O=C(Nc1ccc(OC(F)(F)Cl)cc1)c1cnc(N2CC[C@@H](O)C2)c(-c2ccn[nH]2)c1 [asciminib] | insoluble in water
O=P1(N(CCCl)CCCl)NCCCO1 (stereo not shown) [cyclophosphamide] | water soluble
C=CC(=O)N1CC[C@H](n2nc(C#Cc3cc(OC)cc(OC)c3)c3c(N)ncnc32)C1 [futibatinib] | insoluble in water

same assay, conditions: in water at 25° C.

Solubility [mg per mL in] | SMILES
0.04 | CONC(=O)Nc1ccc(-c2sc3c(c2CN(C)C)c(=O)n(-c2ccc(OC)nn2)c(=O)n3Cc2c(F)cccc2F)cc1 [relugolix]

same assay, conditions: pH 1.2

Solubility | SMILES
1.2 (32.90 mg/mL) and | CCOc1cc2ncc(C#N)c(Nc3ccc(OCc4ccccn4)c(Cl)c3)c2cc1NC(=O)/C=C/CN(C)C [neratinib]

same assay, conditions: pH 1.6

Solubility | SMILES
greater than 10 mg/mL | C[C@@H](Oc1cc(-c2cnn(C3CCNCC3)c2)cnc1N)c1c(Cl)ccc(F)c1Cl [crizotinib]
